For series [1], the system named is C. albicans ATCC 10231. The series can be described thus: In vitro susceptibility testing, microdilution broth (EUCAST), C. albicans control strain. The note with it: Candida albicans; for IC50: ATCC10231, C. albicans ATCC 10231, mean and 95% confidence interval. The series is classed as cell-based, Candida albicans.
The nature of series [2]: Cytotoxicity test on Vero cells (WST8/CCK-8 cell viability). The series is classed as cell-based, African green monkey. The note with it: African green monkey, Vero cells (ATCC CCL-81), Vero cells, mean and 95% confidence interval.
Another series deals with C. albicans. The series can be described thus: In vitro susceptibility testing, C. albicans clinical isolate. The series is classed as cell-based. The conditions noted are these: Candida albicans; clinical isolate; mean and 95% confidence interval; read-out: IC50 C. albicans. An excerpt: (§1) The yeasts included in the present study were Candida albicans ATCC 10231 (American Type Culture Collection) and a collection of yeasts recovered from a variety of clinical specimens, i.e., blood, urine, genital swabs, bronchoalveolar lavage, nail specimens, collected at the Microbiology Unit, St. Orsola Malpighi University Hospital, Bologna, Italy. The clinical strain isolates were identified by standard procedures, including colony morphology on chromogenic agar (CHROMagar Candida medium, Becton Dickinson, Heidelberg, Germany) and confirmed by MALDI Biotyper System using matrix-assisted laser desorption ionization–time of flight mass spectrometry (MALDI-TOF MS, Bruker Daltonik, GmbH, Germany).
(§2) The in vitro antifungal activity of the chalcones was evaluated by a microdilution broth method in accordance with the guidelines provided by the EUCAST Edef 7.3 [22]. Briefly, all strains were cultured on Sabauraud dextrose, then inocula, prepared at 0.5 McFarland, were diluted 1:20 in RPMI-1640 medium (Gibco®, ThermoFisher Scientific Inc., Waltham, MA, USA), containing glucose 2%, 0.3% levo-glutamine buffered to pH 7.0 with 0.165 M 3-(N-morpholino)propanesulfonic acid (MOPS) to yield 1-5 × 10^5 cells/mL. A total of 100 µL of the yeast suspension was inoculated in a 96-well microplate and incubated with 100 µL of serially 2-fold dilution of the compound in the range 200–6.25 µM. The following controls were included: yeast suspensions incubated in RPMI-1640 culture medium (positive growth control), or supplemented with dilutions of DMSO, or fluconazole (Sigma-Aldrich, St. Louis, MO, USA) as a commercial drug. To check the background turbidity of reagents and the sterility of the procedure, dilutions of each compound were incubated in RPMI-1640 culture medium, without yeast inoculum. The inoculated plate was incubated at 37 °C for 24 h, and subsequently the optical density at 630 nm was measured by the Multiskan Ascent microplate reader (Thermo Fisher Scientific Inc.). The effectiveness of the compounds was expressed as percent inhibition relative to the positive growth control when the inhibition […] the 50% at 100 µM. The IC50 value was determined by interpolation of the dose–response curves generated by plotting the percentages of growth inhibition, relative to the drug-free control (set to 100% of growth), as a function of the tested concentrations (on a logarithm scale). Statistical analysis was carried out by the nonlinear regression method using GraphPad Prism version 5.0 for Windows (GraphPad Software, San Diego, CA, USA). All assays were performed in triplicate and at least two independent experiments were carried out.

The subject of another series is C. parapsilosis. Briefly: In vitro susceptibility testing, C. parapsilosis clinical isolate. The class given is cell-based. The note with it: Lodderomyces parapsilosis; clinical isolate; read-out: IC50 C. parapsilosis.
Excerpt: as §1, §2

The next series has as its system C. lusitaniae. The series can be described thus: In vitro susceptibility testing, C. lusitaniae clinical isolate. The series is classed as cell-based. The note with it: Clavispora lusitaniae; clinical isolate; read-out: IC50 C. lusitaniae.
Excerpt: as §1, §2

The subject of another series is C. tropicalis. The series can be described thus: In vitro susceptibility testing, C. tropicalis clinical isolate. The class given is cell-based. The conditions noted are these: Candida tropicalis; clinical isolate; read-out: IC50 C. tropicalis.
Excerpt: as §1, §2

Another series deals with C. krusei. The series can be described thus: In vitro susceptibility testing, C. krusei clinical isolate. The series is classed as cell-based. The conditions noted are these: Pichia kudriavzevii; clinical isolate; read-out: IC50 C. krusei.
Excerpt: as §1, §2

The test system of a further series is C. glabrata. Briefly: In vitro susceptibility testing, C. glabrata clinical isolate. The series is classed as cell-based. The note with it: Nakaseomyces glabratus; clinical isolate; read-out: IC50 C. glabrata.
Excerpt: as §1, §2

A further series deals with C. utilis. Briefly: In vitro susceptibility testing, C. utilis clinical isolate. The series is classed as cell-based. The conditions noted are these: Williopsis jadinii; clinical isolate; read-out: IC50 C. utilis.
Excerpt: as §1, §2

The test system of another series is C. neoformans. The series can be described thus: In vitro susceptibility testing, C. neoformans clinical isolate. The conditions noted are these: Cryptococcus neoformans; clinical isolate; read-out: IC50 C. neoformans. The class given is cell-based.
Excerpt: as §1, §2

The test system of another series is S. clavata. Briefly: In vitro susceptibility testing, S. clavata clinical isolate. The class given is cell-based. The note with it: clinical isolate; read-out: IC50 S. clavata.
Excerpt: as §1, §2

Another series relates to R. mucilaginosa. Briefly: In vitro susceptibility testing, R. mucilaginosa clinical isolate. The class given is cell-based. The note with it: clinical isolate; read-out: IC50 R. mucilaginosa.
Excerpt: as §1, §2

In series [3] the test system is C. albicans ATCC 10231. Briefly: Effect on yeast-to-hyphae transition. The series is classed as cell-based, Candida albicans. The conditions noted are these: compound at IC50 value, 2 h. The source says: Blastospore and hyphae forms were observed under a light microscope.
The subject of series [4] is C. albicans ATCC 10231. The series can be described thus: Agar-invasive hyphal growth (Spider agar assay). The conditions noted are these: compounds at IC50 values, three days at 37 °C. The series is classed as cell-based, Candida albicans. Here is the method:
Aliquots (2 µL) of a suspension of C. albicans ATCC 10231 (5 × 10^5 cells/mL) were spotted onto medium in triplicate and the morphology of growing colonies was observed following three days of incubation at 37 °C. Spider agar plates without chalcones, containing DMSO, served as the control. The presence of filaments at the colony edges was determined using a light microscope under 10× magnification.

The test system of series [5] is C. albicans ATCC 10231. The series can be described thus: Disruption of preformed mature biofilm (biofilm metabolic activity). The conditions noted are these: compounds added to preformed mature biofilm; statistically significant. The series is classed as cell-based, Candida albicans.

Where “and” joins values, the source holds several entries; their conditions need not be identical. Equal entries are not always repeated. Where two headings read alike, the source gives them in different places. Some results are limits rather than exact numbers.

For `O=C(/C=C/c1cccc(F)c1)c1cc(F)ccc1O` [Compound 7, (E)-1-(5-Fluoro-2-hydroxyphenyl)-3-(3-fluorophenyl)prop-2-en-1-one], the IC50 with C. albicans ATCC 10231 [1] (read-out: IC50) was 53 µM; in the series on C. albicans ATCC 10231 [1] (read-out: IC50 [μg/mL]) it was 13.8 µg/mL; in the series with C. albicans, 32.1 µM and 8.4 µg/mL; in the series on C. parapsilosis it was 100 µM and 26 µg/mL; in the series on C. lusitaniae, 31.7 µM and 8.2 µg/mL; with C. tropicalis it was > 200 µM and > 52 µg/mL. The IC50 in the series with C. krusei was 100 µM and 26 µg/mL; in the series with C. glabrata, 100 µM and 26 µg/mL; in the series with C. utilis, 100 µM and 26 µg/mL; with C. neoformans, 15.6 µM and 4.1 µg/mL; in the series on S. clavata, 37 µM and 9.6 µg/mL; in the series on R. mucilaginosa, 80 µM and 20.8 µg/mL. This compound also yielded an inhibition at 100 µM in the series with C. albicans ATCC 10231 [1] (ATCC10231, at 100 μM, C. albicans ATCC 10231, 24 h) of 69 ± 12.4%. In addition, the CC50 at 72 h in [2] (read-out: CC50) is 182 µM; in series [2] (read-out: CC50 [μg/mL]) it was 47.3 µg/mL. Moreover, the “cell morphology after treatment” value with C. albicans ATCC 10231 [3] is “mainly formed blastospores, some rare budding cells but no hyphae”. Further, in the series with C. albicans ATCC 10231 [4], the “invasion of Spider medium (filamentation)” value is given as “unable to penetrate the medium”. Also, in the series on C. albicans ATCC 10231 [5], the “reduction of metabolism of sessile cells in mature biofilm” value was less than 25%.

For the origin of these results see PMC6359675, “Functionalization of the Chalcone Scaffold for the Discovery of Novel Lead Compounds Targeting Fungal Infections” (Molecules, 2019).
